Measurements taken from PubChem BioAssay (NCI).
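Growth conditions: 96-well plates. Treatment: test compound, 48 hours, 5 concentrations. Analysis: linear interpolation between bracketing concentrations; unreached endpoints set to highest concentration. Here, GI50 denotes the concentration required for 50% inhibition of growth. Definition used: TGI = concentration required for complete inhibition of growth.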

Key:
Test in all cases: NCI tumour cell line growth inhibition, 48 h
786-0 renal = tested on: 786-0 renal
A498 renal = tested on: A498 renal
A549 NSCLC = tested on: A549 NSCLC
ACHN renal = tested on: ACHN renal
BT-549 breast = tested on: BT-549 breast
CAKI-1 renal = tested on: CAKI-1 renal
CCRF-CEM leukemia = tested on: CCRF-CEM leukemia
COLO 205 colon = tested on: COLO 205 colon
DU-145 prostate = tested on: DU-145 prostate
EKVX NSCLC = tested on: EKVX NSCLC
HCC-2998 colon = tested on: HCC-2998 colon
HCT-116 colon = tested on: HCT-116 colon
HCT-15 colon = tested on: HCT-15 colon
HL-60(TB) leukemia = tested on: HL-60(TB) leukemia
HOP-62 NSCLC = tested on: HOP-62 NSCLC
HOP-92 NSCLC = tested on: HOP-92 NSCLC
HS 578T breast = tested on: HS 578T breast
HT29 colon = tested on: HT29 colon
IGROV1 ovarian = tested on: IGROV1 ovarian
K-562 leukemia = tested on: K-562 leukemia
KM12 colon = tested on: KM12 colon
LOX IMVI melanoma = tested on: LOX IMVI melanoma
M14 melanoma = tested on: M14 melanoma
MALME-3M melanoma = tested on: MALME-3M melanoma
MCF7 breast = tested on: MCF7 breast
MDA-MB-231 breast = tested on: MDA-MB-231 breast
MDA-MB-435 = tested on: MDA-MB-435
MOLT-4 leukemia = tested on: MOLT-4 leukemia
NCI-H226 lung = tested on: NCI-H226 lung
NCI-H460 lung = tested on: NCI-H460 lung
NCI-H522 lung = tested on: NCI-H522 lung
NCI/ADR-RES ovarian = tested on: NCI/ADR-RES ovarian
OVCAR-3 ovarian = tested on: OVCAR-3 ovarian
OVCAR-4 ovarian = tested on: OVCAR-4 ovarian
OVCAR-5 ovarian = tested on: OVCAR-5 ovarian
OVCAR-8 ovarian = tested on: OVCAR-8 ovarian
PC-3 prostate = tested on: PC-3 prostate
RPMI-8226 leukemia = tested on: RPMI-8226 leukemia
RXF 393 renal = tested on: RXF 393 renal
SF-268 CNS = tested on: SF-268 CNS
SF-295 CNS = tested on: SF-295 CNS
SF-539 CNS = tested on: SF-539 CNS
SK-MEL-2 melanoma = tested on: SK-MEL-2 melanoma
SK-MEL-28 melanoma = tested on: SK-MEL-28 melanoma
SK-MEL-5 melanoma = tested on: SK-MEL-5 melanoma
SK-OV-3 ovarian = tested on: SK-OV-3 ovarian
SN12C renal = tested on: SN12C renal
SNB-19 CNS = tested on: SNB-19 CNS
SNB-75 CNS = tested on: SNB-75 CNS
SR leukemia = tested on: SR leukemia
SW-620 colon = tested on: SW-620 colon
T-47D breast = tested on: T-47D breast
TK-10 renal = tested on: TK-10 renal
U251 CNS = tested on: U251 CNS
UACC-257 melanoma = tested on: UACC-257 melanoma
UACC-62 melanoma = tested on: UACC-62 melanoma
UO-31 renal = tested on: UO-31 renal

SMILES: O=C1[C@H]2Cc3c([nH]c4ccccc34)[C@@H](c3ccc(Br)cc3)N2C(=O)CN1C1CCN(CC2CCCCC2)CC1
- GI50 (786-0 renal): 15.6 µM
- TGI (786-0 renal): 29.4 µM
- GI50 (A498 renal): 13.7 µM
- TGI (A498 renal): 26.9 µM
- GI50 (A549 NSCLC): 18.3 µM
- TGI (A549 NSCLC): 39.9 µM
- GI50 (ACHN renal): 15.3 µM
- TGI (ACHN renal): 28.7 µM
- GI50 (BT-549 breast): 15.5 µM
- TGI (BT-549 breast): 29.6 µM
- GI50 (CAKI-1 renal): 14.6 µM
- TGI (CAKI-1 renal): 28.2 µM
- GI50 (CCRF-CEM leukemia): 24.1 µM
- TGI (CCRF-CEM leukemia): 56.5 µM
- GI50 (COLO 205 colon): 14.3 µM
- TGI (COLO 205 colon): 30.2 µM
- GI50 (DU-145 prostate): 17.6 µM
- TGI (DU-145 prostate): 33.6 µM
- GI50 (EKVX NSCLC): 13.8 µM
- TGI (EKVX NSCLC): 27.4 µM
- GI50 (HCC-2998 colon): 14.4 µM
- TGI (HCC-2998 colon): 28 µM
- GI50 (HCT-116 colon): 13.6 µM
- TGI (HCT-116 colon): 27.2 µM
- GI50 (HCT-15 colon): 16 µM
- TGI (HCT-15 colon): 30.8 µM
- GI50 (HL-60(TB) leukemia): 16.4 µM
- TGI (HL-60(TB) leukemia): 41.8 µM
- GI50 (HOP-62 NSCLC): 16.2 µM
- TGI (HOP-62 NSCLC): 34.6 µM
- GI50 (HOP-92 NSCLC): 6.7 µM
- TGI (HOP-92 NSCLC): 21.1 µM
- GI50 (HS 578T breast): 18.4 µM
- TGI (HS 578T breast): 45.1 µM
- GI50 (HT29 colon): 14.8 µM
- TGI (HT29 colon): 35 µM
- GI50 (IGROV1 ovarian): 13.4 µM
- TGI (IGROV1 ovarian): 26.7 µM
- GI50 (K-562 leukemia): 16.5 µM
- TGI (K-562 leukemia): 53.1 µM
- GI50 (KM12 colon): 17 µM
- TGI (KM12 colon): 34 µM
- GI50 (LOX IMVI melanoma): 18.6 µM
- TGI (LOX IMVI melanoma): 34.3 µM
- GI50 (M14 melanoma): 16.9 µM
- TGI (M14 melanoma): 32.9 µM
- GI50 (MALME-3M melanoma): 13.8 µM
- TGI (MALME-3M melanoma): 28.3 µM
- GI50 (MCF7 breast): 10.1 µM
- TGI (MCF7 breast): 22.3 µM
- GI50 (MDA-MB-231 breast): 15.2 µM
- TGI (MDA-MB-231 breast): 30.1 µM
- GI50 (MDA-MB-435): 16.9 µM
- TGI (MDA-MB-435): 31.6 µM
- GI50 (MOLT-4 leukemia): 20.4 µM
- TGI (MOLT-4 leukemia): 81.6 µM
- GI50 (NCI-H226 lung): 30.4 µM
- TGI (NCI-H226 lung): > 100 µM
- GI50 (NCI-H460 lung): 18.8 µM
- TGI (NCI-H460 lung): 36.1 µM
- GI50 (NCI-H522 lung): 17.9 µM
- TGI (NCI-H522 lung): 39.9 µM
- GI50 (NCI/ADR-RES ovarian): 16.7 µM
- TGI (NCI/ADR-RES ovarian): 34.1 µM
- GI50 (OVCAR-3 ovarian): 15.3 µM
- TGI (OVCAR-3 ovarian): 29.5 µM
- GI50 (OVCAR-4 ovarian): 17.9 µM
- TGI (OVCAR-4 ovarian): 37.1 µM
- GI50 (OVCAR-5 ovarian): 15.1 µM
- TGI (OVCAR-5 ovarian): 28.8 µM
- GI50 (OVCAR-8 ovarian): 22.5 µM
- TGI (OVCAR-8 ovarian): 55.5 µM
- GI50 (PC-3 prostate): 12.4 µM
- TGI (PC-3 prostate): 25.5 µM
- GI50 (RPMI-8226 leukemia): 23.4 µM
- TGI (RPMI-8226 leukemia): 53.4 µM
- GI50 (RXF 393 renal): 11.9 µM
- TGI (RXF 393 renal): 24.2 µM
- GI50 (SF-268 CNS): 15.3 µM
- TGI (SF-268 CNS): 31.9 µM
- GI50 (SF-295 CNS): 17.5 µM
- TGI (SF-295 CNS): 31.9 µM
- GI50 (SF-539 CNS): 15.5 µM
- TGI (SF-539 CNS): 29.5 µM
- GI50 (SK-MEL-2 melanoma): 23 µM
- TGI (SK-MEL-2 melanoma): 58.7 µM
- GI50 (SK-MEL-28 melanoma): 16.4 µM
- TGI (SK-MEL-28 melanoma): 30.6 µM
- GI50 (SK-MEL-5 melanoma): 16.1 µM
- TGI (SK-MEL-5 melanoma): 29.9 µM
- GI50 (SK-OV-3 ovarian): 21.9 µM
- TGI (SK-OV-3 ovarian): 59.3 µM
- GI50 (SN12C renal): 15.8 µM
- TGI (SN12C renal): 30.9 µM
- GI50 (SNB-19 CNS): 15.9 µM
- TGI (SNB-19 CNS): 31.5 µM
- GI50 (SNB-75 CNS): 87.1 µM
- TGI (SNB-75 CNS): > 100 µM
- GI50 (SR leukemia): 16 µM
- TGI (SR leukemia): 46.1 µM
- GI50 (SW-620 colon): 16.5 µM
- TGI (SW-620 colon): 31.8 µM
- GI50 (T-47D breast): 13.9 µM
- TGI (T-47D breast): > 100 µM
- GI50 (TK-10 renal): 17.8 µM
- TGI (TK-10 renal): 35.1 µM
- GI50 (U251 CNS): 16.4 µM
- TGI (U251 CNS): 34 µM
- GI50 (UACC-257 melanoma): 20.2 µM
- TGI (UACC-257 melanoma): 42.7 µM
- GI50 (UACC-62 melanoma): 16 µM
- TGI (UACC-62 melanoma): 29.9 µM
- GI50 (UO-31 renal): 11.7 µM
- TGI (UO-31 renal): 24.2 µM
